Measurements as given in ChEMBL document CHEMBL4304790, “Successful Strategies for Mitigation of a Preclinical Signal for Phototoxicity in a DGAT1 Inhibitor” (ACS Med Chem Lett, 2019).
≈ marks a conversion by molar mass, not a printed value. Structures can show the parent of a compound that is named as a salt. Calls of active or inactive are those of the source. No cut-off for these calls is given here.

Legend:
[1] = Photo irritation factor, ratio of IC50 for cytotoxicity against BALB/c mouse 3T3 cells pretreated for 1 hr prior to 50 mins incubation in dark conditions followed by further incubation in DMEM medium for 20 to 22 hrs to IC50 for cytotoxicity against BALB/c mouse 3T3 cells pretreated for 1 hr prior to irradiation with UVA for 50 mins followed by further in DMEM medium incubation for 20 to 22 hrs …; format: cell-based; conditions: BALB/c 3T3 cells
[2] = Lipophilicity, log D of the compound at pH 7.4; format: physicochemical; conditions: buffer
[3] = Dissociation constant, pKa of compound; format: physicochemical
[4] = target: T1, Diacylglycerol O-acyltransferase 1 (Homo sapiens, UniProt O75907); experiment: (§1) Inhibition of recombinant human his-tagged DGAT1 expressed in Sf9 insect cells using oleoyl-CoA and diolein as substrates incubated for 30 mins by LC/MS/MS analysis
T1 sequence (O75907 whole entry): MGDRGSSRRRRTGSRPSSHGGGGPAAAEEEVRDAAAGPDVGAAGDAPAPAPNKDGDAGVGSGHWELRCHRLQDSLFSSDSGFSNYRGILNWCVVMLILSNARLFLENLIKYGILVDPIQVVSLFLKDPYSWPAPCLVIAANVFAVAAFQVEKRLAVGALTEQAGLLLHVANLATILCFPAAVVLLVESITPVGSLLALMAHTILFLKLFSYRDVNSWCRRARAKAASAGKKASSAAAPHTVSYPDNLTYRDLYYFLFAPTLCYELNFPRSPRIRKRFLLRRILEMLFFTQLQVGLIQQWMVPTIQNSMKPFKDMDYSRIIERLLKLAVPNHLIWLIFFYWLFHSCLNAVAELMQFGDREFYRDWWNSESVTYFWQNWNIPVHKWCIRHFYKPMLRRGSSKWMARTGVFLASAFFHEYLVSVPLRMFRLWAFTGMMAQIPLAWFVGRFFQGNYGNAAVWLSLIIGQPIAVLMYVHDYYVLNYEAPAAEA

[5] = Half life in Sprague-Dawley rat at 1 mg/kg, iv measured upto 24 hrs; format: ADME, organism-based; conditions: in vivo
[6] = Volume of distribution in Sprague-Dawley rat at 1 mg/kg, iv measured upto 24 hrs; format: ADME, organism-based; conditions: in vivo
[7] = Clearance in Sprague-Dawley rat at 1 mg/kg, iv measured upto 24 hrs; format: ADME, organism-based; conditions: in vivo
[8] = Solubility of compound at pH 6.8; format: physicochemical; conditions: buffer
[9] = Permeability across apical to basolateral side in human Caco2 cells; format: ADME, cell-based; conditions: Caco-2, read-out: permeability
[10] = Permeability across basolateral to apical side in human Caco2 cells; format: ADME, cell-based; conditions: Caco-2, read-out: permeability
[11] = Efflux ratio of permeability across basolateral to apical side over apical to basolateral side in human Caco2 cells; format: ADME, cell-based; conditions: Caco-2
[12] = Protein binding in rat plasma; format: ADME, cell-free; conditions: read-out: PPB (converted)
[13] = AUC (0 to 24 hrs) in Sprague-Dawley rat at 1 mg/kg, iv measured upto 24 hrs; format: ADME, organism-based; design: dose 1 mg/kg, time < 24 hr, route intravenous; conditions: in vivo
[14] = target: T2, Diacylglycerol O-acyltransferase 1 (Mus musculus, UniProt Q9Z2A7); experiment: (§2) Inhibition of DGAT1 in mouse C2C12 cells assessed as reduction in intracellular triglyceride production incubated for 2 hrs in presence of BSA-complexed oleate by LC/MS/MS analysis; format: cell-based
T2 sequence (Q9Z2A7 whole entry): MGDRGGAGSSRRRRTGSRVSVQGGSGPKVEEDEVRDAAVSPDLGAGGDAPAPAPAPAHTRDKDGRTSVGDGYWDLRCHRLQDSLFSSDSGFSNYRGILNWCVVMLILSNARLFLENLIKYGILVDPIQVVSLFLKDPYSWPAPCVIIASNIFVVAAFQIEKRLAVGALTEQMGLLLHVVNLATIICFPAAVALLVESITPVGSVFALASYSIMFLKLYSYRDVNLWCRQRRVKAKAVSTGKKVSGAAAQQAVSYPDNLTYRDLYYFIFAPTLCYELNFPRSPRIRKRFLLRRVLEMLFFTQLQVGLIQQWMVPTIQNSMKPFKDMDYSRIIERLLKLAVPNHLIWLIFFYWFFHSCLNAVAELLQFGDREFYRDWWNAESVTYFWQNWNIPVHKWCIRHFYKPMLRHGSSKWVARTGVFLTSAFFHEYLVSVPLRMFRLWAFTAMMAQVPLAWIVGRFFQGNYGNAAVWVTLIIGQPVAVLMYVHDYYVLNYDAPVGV

Rattus norvegicus [15] = experiment: Antihyperlipidemic activity in Sprague-Dawley rat lipid bolus model assessed as reduction in plasma triglyceride excursion at 5 mg/kg, po administered via gavage 4 hrs prior to lipid challenge and measured upto 8 hrs post compound dose by GPO-Trinder method relative to control; format: functional
[16] = AUC (0 to 24 hrs) in Sprague-Dawley rat at 5 mg/kg, po measured upto 24 hrs; format: ADME, organism-based; design: dose 5 mg/kg, time < 24 hr, route oral; conditions: in vivo
[17] = Cmax in Sprague-Dawley rat at 5 mg/kg, po measured upto 24 hrs; format: ADME, organism-based; design: dose 5 mg/kg, route oral; conditions: in vivo
[18] = Tmax in Sprague-Dawley rat at 5 mg/kg, po measured upto 24 hrs; format: ADME, organism-based; conditions: in vivo
[19] = Oral bioavailability in Sprague-Dawley rat at 5 mg/kg measured upto 24 hrs; format: ADME, organism-based; conditions: in vivo
[20] = Half life in po dosed human plasma administered as single dose; format: ADME, organism-based
[21] = Toxicity in preclinical models assessed as GI tolerability
[22] = target: T3, Diacylglycerol O-acyltransferase 1 (Homo sapiens) (UniProt O75907); experiment: as §1
T3 sequence (whole entry): T1 sequence (O75907 whole entry)

[23] = target: T4, Diacylglycerol O-acyltransferase 1 (Mus musculus) (UniProt Q9Z2A7); experiment: as §2; format: cell-based
T4 sequence (whole entry): T2 sequence (Q9Z2A7 whole entry)

[24] = Half life in Sprague-Dawley rat at 0.5 mg/kg, iv measured upto 24 hrs; format: ADME, organism-based; conditions: in vivo
[25] = Volume of distribution in Sprague-Dawley rat at 0.5 mg/kg, iv measured upto 24 hrs; format: ADME, organism-based; conditions: in vivo
[26] = Clearance in Sprague-Dawley rat at 0.5 mg/kg, iv measured upto 24 hrs; format: ADME, organism-based; conditions: in vivo
[27] = AUC (0 to 24 hrs) in Sprague-Dawley rat at 0.5 mg/kg, iv measured upto 24 hrs; format: ADME, organism-based; design: time < 24 hr, dose 0.5 mg/kg, route intravenous; conditions: in vivo
[28] = Drug uptake in plasma of Sprague-Dawley rat lipid bolus model at 5 mg/kg, po administered via gavage 4 hrs prior to lipid challenge and measured upto 8 hrs post compound dose by LC-MS/MS analysis; format: ADME, organism-based; conditions: in vivo
[29] = AUC (0 to 24 hrs) in Sprague-Dawley rat at 1.5 mg/kg, po measured upto 24 hrs; format: ADME, organism-based; design: time < 24 hr, dose 1.5 mg/kg, route oral; conditions: in vivo
[30] = Cmax in Sprague-Dawley rat at 1.5 mg/kg, po measured upto 24 hrs; format: ADME, organism-based; design: dose 1.5 mg/kg, route oral; conditions: in vivo
[31] = Tmax in Sprague-Dawley rat at 1.5 mg/kg, po measured upto 24 hrs; format: ADME, organism-based; conditions: in vivo
[32] = Oral bioavailability in Sprague-Dawley rat at 1.5 mg/kg measured upto 24 hrs; format: ADME, organism-based; conditions: in vivo
Rattus norvegicus [33] = species on record: Rattus norvegicus; conditions: Sprague-Dawley, 5 mg/kg

CN(C)CCCN1c2ccccc2Sc2ccc(Cl)cc21 [CHLORPROMAZINE HYDROCHLORIDE]
selectivity ratio [1]: > 6

O=C(O)CC12CCC(c3ccc(-c4ccc(Nc5nnc(C6CCC6)o5)cn4)cc3)(CC1)CO2
logD [2]: 1.5
pKa [3]: 3.9

O=C(O)C[C@H]1CC[C@H](c2ccc(-c3ccc(Nc4ccc(C(F)(F)F)nc4)cn3)cc2)CC1
selectivity ratio [1]: 56
IC50 [4]: 55 nM
half-life [5]: 5.1 h
Vd [6]: 0.1 L/kg
clearance [7]: 1 mL/min/kg
logD [2]: 3.6
solubility [8]: < 5 µM
pKa [3]: 4.1
Papp A→B [9]: 8.1 ×10⁻⁶ cm/s
Papp B→A [10]: 2.3 ×10⁻⁶ cm/s
efflux ratio [11]: 0.28
fraction unbound [12]: 0.003
AUC(0-t) at 24 h [13]: 46 µM·h
EC50 [14]: 71 nM
inhibition in vivo at 5 mg/kg (Rattus norvegicus [15]): 50 to 70%
AUC(0-t) at 24 h [16]: 190 µM·h
Cmax [17]: 42 µM
Tmax [18]: 0.7 h
bioavailability [19]: 83%
half-life [20]: 125 h
Activity [21]: Non-Toxic

CC(C)c1nnc(Nc2ccc(-c3ccc(N4CCC(CC(=O)O)CC4)cc3)nc2)o1
logD [2]: 0.7
pKa [3]: 3.8
EC50 [14]: 2300 nM

CC(C)(C)c1nnc(Nc2ccc(-c3ccc([C@H]4CC[C@H](CC(=O)O)CC4)cc3)nc2)o1
inhibition [22]: Active
inhibition [23]: Active

O=C(O)C[C@H]1CC[C@H](c2ccc(-c3ccc(Nc4nnc(C5CCC5)s4)cn3)cc2)CC1
EC50 [14]: 8 nM

Cc1nnc(Nc2ccc(-c3ccc([C@H]4CC[C@H](CC(=O)O)CC4)cc3)nc2)o1
EC50 [14]: 206 nM

O=C(O)CC12CCC(c3ccc(-c4ccc(Nc5nnc(C6CCC6)o5)cc4)cc3)(CC1)CO2
half-life [24]: 3.2 h
Vd [25]: 0.7 L/kg
clearance [26]: 3.5 mL/min/kg
AUC(0-t) at 24 h [27]: 5.16 µM·h
logD [2]: 2.4
solubility [8]: < 5 µM
Papp A→B [9]: 5.9 ×10⁻⁶ cm/s
Papp B→A [10]: 11.8 ×10⁻⁶ cm/s
fraction unbound [12]: < 0.01
Drug uptake [28]: Active
AUC(0-t) at 24 h [29]: 25.8 µM·h
Cmax [30]: 6.1 µM
Tmax [31]: 1 h
bioavailability [32]: > 100%
inhibition (Rattus norvegicus [33]): Active
Activity [21]: Non-Toxic

O=C(O)C[C@H]1CC[C@H](c2ccc(-c3ccc(Nc4nnc(C5CCC5)o4)cn3)cc2)CC1
logD [2]: 2.8
EC50 [14]: 12 nM

COc1ccc2nc(Nc3ccc(-c4ccc([C@H]5CC[C@H](CC(=O)O)CC5)cc4)nc3)oc2c1
selectivity ratio [1]: 17

CCc1nnc(Nc2ccc(-c3ccc([C@H]4CC[C@H](CC(=O)O)CC4)cc3)nc2)o1
EC50 [14]: 27 nM

CCc1nc(C)c(C(=O)Nc2ccc(-c3ccc(C45CCC(CC(=O)O)(CC4)OC5)cc3)cc2)o1
half-life [24]: 20 h
Vd [25]: 0.3 L/kg
clearance [26]: 0.2 mL/min/kg
AUC(0-t) at 24 h [27]: 51.4 µM·h
solubility [8]: 13 µM (≈ 6.17 µg/mL)
Papp A→B [9]: 18.3 ×10⁻⁶ cm/s
Papp B→A [10]: 7.7 ×10⁻⁶ cm/s
fraction unbound [12]: < 0.01
Drug uptake [28]: Active
AUC(0-t) at 24 h [29]: 180 µM·h
Cmax [30]: 28 µM
Tmax [31]: 3 h
bioavailability [32]: > 100%
inhibition (Rattus norvegicus [33]): Active
Activity [21]: Non-Toxic

CCc1nc(C)c(C(=O)Nc2ccc(-c3ccc([C@H]4CC[C@H](CC(=O)O)CC4)cc3)nc2)o1
selectivity ratio [1]: 1
EC50 [14]: 8 nM
